In patent publication US8124610B2, “Sodium channel inhibitors” (Icagen Inc., priority 2007, dated 2012):
Where two headings read alike, the source gives them in different places.

Columns and labels:
hSCN9A = biological target: T1, hSCN9A (Homo sapiens, UniProt Q15858); assay: Whole-cell patch-clamp electrophysiology (conventional or PatchXpress), HEK cells expressing hSCN9A, estimated IC-50; assay type: cell-based; settings: read-out: SCN9A EIC-50
T1 construct: expressed in transfected cells
In short: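 Stably transfected HEK cells recorded by whole-cell voltage clamp (manual or PatchXpress) at 22–24 °C in pH 7.4 HEPES-buffered extracellular solution. Cells held at the empirically determined inactivation V1/2 after an 8 s prepulse, then stepped to 0 mV for 20 ms; % inhibition from current amplitude before vs after compound.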

hSCN3A = biological target: T2, hSCN3A (Homo sapiens, UniProt Q9NY46); assay: Whole-cell patch-clamp electrophysiology (conventional or PatchXpress), HEK cells expressing hSCN3A, estimated IC-50; assay type: cell-based; settings: read-out: SCN3A EIC-50
T2 construct: expressed in transfected cells
T2 sequence (Q9NY46 whole entry): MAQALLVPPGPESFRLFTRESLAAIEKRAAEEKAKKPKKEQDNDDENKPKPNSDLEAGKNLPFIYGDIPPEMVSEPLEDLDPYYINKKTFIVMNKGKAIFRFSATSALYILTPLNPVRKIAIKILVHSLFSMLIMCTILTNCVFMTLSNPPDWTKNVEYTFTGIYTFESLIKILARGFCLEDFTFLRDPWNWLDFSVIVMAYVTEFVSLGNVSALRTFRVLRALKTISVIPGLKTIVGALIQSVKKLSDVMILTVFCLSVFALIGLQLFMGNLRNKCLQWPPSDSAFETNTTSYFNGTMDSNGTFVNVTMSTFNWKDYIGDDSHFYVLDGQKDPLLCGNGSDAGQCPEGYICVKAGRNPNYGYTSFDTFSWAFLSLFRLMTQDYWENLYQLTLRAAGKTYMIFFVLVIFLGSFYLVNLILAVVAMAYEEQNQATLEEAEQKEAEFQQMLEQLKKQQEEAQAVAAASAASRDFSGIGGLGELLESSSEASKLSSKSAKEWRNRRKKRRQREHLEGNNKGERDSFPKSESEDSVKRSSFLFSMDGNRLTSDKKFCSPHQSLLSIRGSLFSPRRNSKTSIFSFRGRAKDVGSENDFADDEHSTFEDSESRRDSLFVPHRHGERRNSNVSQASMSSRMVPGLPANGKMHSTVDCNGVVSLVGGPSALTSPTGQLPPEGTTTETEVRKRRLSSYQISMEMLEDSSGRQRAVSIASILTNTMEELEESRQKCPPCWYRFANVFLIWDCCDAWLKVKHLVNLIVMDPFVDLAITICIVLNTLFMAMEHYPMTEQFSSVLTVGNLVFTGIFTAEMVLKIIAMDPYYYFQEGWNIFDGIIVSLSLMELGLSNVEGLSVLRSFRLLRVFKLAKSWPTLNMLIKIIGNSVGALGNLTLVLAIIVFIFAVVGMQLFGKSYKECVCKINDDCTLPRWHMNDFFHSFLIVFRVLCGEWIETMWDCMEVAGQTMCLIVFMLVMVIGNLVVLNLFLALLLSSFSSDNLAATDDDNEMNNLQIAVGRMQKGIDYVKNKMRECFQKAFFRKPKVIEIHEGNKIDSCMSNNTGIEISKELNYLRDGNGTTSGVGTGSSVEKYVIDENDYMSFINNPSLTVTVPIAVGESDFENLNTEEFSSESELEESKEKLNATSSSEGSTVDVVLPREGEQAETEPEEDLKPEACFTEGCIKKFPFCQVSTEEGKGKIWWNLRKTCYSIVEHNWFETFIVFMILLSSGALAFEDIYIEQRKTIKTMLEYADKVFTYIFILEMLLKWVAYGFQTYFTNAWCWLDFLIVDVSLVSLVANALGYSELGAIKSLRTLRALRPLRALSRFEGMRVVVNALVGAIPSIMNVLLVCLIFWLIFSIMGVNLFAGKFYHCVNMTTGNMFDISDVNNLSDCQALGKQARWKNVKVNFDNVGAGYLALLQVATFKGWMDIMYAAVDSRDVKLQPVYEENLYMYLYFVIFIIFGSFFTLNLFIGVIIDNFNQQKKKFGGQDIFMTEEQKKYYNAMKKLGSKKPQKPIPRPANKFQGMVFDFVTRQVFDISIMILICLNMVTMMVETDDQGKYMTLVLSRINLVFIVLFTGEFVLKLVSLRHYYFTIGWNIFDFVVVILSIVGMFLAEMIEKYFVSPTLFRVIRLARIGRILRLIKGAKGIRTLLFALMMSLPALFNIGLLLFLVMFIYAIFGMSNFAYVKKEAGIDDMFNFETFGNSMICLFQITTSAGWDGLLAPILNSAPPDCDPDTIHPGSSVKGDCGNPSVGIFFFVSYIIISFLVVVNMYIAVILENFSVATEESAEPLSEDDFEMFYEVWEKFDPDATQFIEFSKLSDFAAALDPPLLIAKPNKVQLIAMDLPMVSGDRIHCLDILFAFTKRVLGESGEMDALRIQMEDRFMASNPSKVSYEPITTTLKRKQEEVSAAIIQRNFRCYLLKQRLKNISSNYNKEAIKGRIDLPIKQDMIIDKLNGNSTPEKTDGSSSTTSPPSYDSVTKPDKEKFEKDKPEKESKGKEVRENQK
Procedure: Human Embryonic Kidney (HEK) cells were transfected with hSCN3A or hSCN9A constructs using lipofectamine reagent (Invitrogen), using standard techniques. Cells stably expressing the hSCN3A or hSCN9A constructs were identified by their resistance to G-418 (400 μg/ml). Clones were screened for expression using the whole-cell voltage-clamp technique. HEK cells stably transfected with hSCN3A or hSCN9A were maintained in DMEM medium supplemented with 10% heat-inactivated fetal bovine serum and 400 μg/ml G418 sulfate in an incubator at 37° C. with a humidified atmosphere of 10% CO2. For HTS, cells were harvested from flasks by trypsinization and replated in an appropriate multi-well plate (typically 96 or 384 wells/plate) such that confluence would be achieved within 24 hours of plating. For electrophysiological studies, cells were removed from the culture flask by brief trypsinization and replated at low density onto glass cover slips. Cells were typically used for electrophysiological experiments within 24 to 72 h after plating. Cover slips containing HEK cells expressing hSCN3A or hSCN9A were placed in a bath on the stage of an inverted microscope and perfused (approximately 1 ml/min) with extracellular solution of the following composition: 138 mM NaCl, 2 mM CaCl2, 5.4 mM KCl, 1 mM MgCl2, 10 mM glucose, and 10 mM HEPES, pH 7.4, with NaOH. […] All recordings were made at room temperature (22-24° C.) using AXOPATCH 200B amplifiers and PCLAMP software (Axon Instruments, Burlingame, Calif.) or PatchXpress 7000 hardware and associated software (Axon Instruments, Burlingame, Calif.). hSCN3A or hSCN9A currents in HEK cells were measured using the whole-cell configuration of the patch-clamp technique (Hamill et al., 1981). […] As a result, voltage errors were negligible and no correction was applied. Current records were acquired at 20 to 50 KHz and filtered at 5 to 10 KHz. HEK cells stably transfected with hSCN3A or hSCN9A were viewed under Hoffman contrast optics and placed in front of an array of flow pipes emitting either control or compound-containing extracellular solutions. All compounds were dissolved in dimethyl sulfoxide to make 10 mM stock solutions, which were then diluted into extracellular solution to attain the final concentrations desired. […] The voltage-dependence of inactivation was determined by applying a series of depolarizing prepulses (8 sec long in 10 mV increments) from a negative holding potential. The voltage was then immediately stepped to 0 mV to assess the magnitude of the sodium current. Currents elicited at 0 mV were plotted as a function of prepulse potential to allow estimation of the voltage midpoint of inactivation (V1/2). Cells were then voltage clamped at the empirically determined V1/2. Compounds were tested for their ability to inhibit hSCN3A or hSCN9A sodium channels by activating the channel with a 20 msec voltage step to 0 mV following an 8 second conditioning prepulse to the empirically determined V1-2 (Table B). Compound effect (% inhibition) was determined by difference in current amplitude before and after application of test compounds. […] In some cases electrophysiological assays were conducted with PatchXpress 7000 hardware and associated software (Molecular Devices Corp) (Table B). All assay buffers and solutions were identical to those used in conventional whole-cell voltage clamp experiments described above. hSCN3A or hSCN9A containing cells were grown as above to 50%-80% confluency and harvested by trypsinization. Trypsinized cells were washed and resuspended in extracellular buffer at a concentration of 1×10^6 cells/ml. The onboard liquid handling facility of the PatchXpress was used for dispensing cells and application of test compounds. Determination of the voltage midpoint of inactivation was as described for conventional whole-cell recordings. Cells were then voltage-clamped to the empirically determined V1/2 and current was activated by a 20 msec voltage step to 0 mV.

[1] = Table V, estimated IC-50 from single point electrophysiology, cells clamped at V1/2
[2] = estimated IC-50, HEK cells expressing hSCN9A, class symbols or bounds
[3] = estimated IC-50, HEK cells expressing hSCN3A, class symbols or bounds

T1 sequence (Q15858 whole entry): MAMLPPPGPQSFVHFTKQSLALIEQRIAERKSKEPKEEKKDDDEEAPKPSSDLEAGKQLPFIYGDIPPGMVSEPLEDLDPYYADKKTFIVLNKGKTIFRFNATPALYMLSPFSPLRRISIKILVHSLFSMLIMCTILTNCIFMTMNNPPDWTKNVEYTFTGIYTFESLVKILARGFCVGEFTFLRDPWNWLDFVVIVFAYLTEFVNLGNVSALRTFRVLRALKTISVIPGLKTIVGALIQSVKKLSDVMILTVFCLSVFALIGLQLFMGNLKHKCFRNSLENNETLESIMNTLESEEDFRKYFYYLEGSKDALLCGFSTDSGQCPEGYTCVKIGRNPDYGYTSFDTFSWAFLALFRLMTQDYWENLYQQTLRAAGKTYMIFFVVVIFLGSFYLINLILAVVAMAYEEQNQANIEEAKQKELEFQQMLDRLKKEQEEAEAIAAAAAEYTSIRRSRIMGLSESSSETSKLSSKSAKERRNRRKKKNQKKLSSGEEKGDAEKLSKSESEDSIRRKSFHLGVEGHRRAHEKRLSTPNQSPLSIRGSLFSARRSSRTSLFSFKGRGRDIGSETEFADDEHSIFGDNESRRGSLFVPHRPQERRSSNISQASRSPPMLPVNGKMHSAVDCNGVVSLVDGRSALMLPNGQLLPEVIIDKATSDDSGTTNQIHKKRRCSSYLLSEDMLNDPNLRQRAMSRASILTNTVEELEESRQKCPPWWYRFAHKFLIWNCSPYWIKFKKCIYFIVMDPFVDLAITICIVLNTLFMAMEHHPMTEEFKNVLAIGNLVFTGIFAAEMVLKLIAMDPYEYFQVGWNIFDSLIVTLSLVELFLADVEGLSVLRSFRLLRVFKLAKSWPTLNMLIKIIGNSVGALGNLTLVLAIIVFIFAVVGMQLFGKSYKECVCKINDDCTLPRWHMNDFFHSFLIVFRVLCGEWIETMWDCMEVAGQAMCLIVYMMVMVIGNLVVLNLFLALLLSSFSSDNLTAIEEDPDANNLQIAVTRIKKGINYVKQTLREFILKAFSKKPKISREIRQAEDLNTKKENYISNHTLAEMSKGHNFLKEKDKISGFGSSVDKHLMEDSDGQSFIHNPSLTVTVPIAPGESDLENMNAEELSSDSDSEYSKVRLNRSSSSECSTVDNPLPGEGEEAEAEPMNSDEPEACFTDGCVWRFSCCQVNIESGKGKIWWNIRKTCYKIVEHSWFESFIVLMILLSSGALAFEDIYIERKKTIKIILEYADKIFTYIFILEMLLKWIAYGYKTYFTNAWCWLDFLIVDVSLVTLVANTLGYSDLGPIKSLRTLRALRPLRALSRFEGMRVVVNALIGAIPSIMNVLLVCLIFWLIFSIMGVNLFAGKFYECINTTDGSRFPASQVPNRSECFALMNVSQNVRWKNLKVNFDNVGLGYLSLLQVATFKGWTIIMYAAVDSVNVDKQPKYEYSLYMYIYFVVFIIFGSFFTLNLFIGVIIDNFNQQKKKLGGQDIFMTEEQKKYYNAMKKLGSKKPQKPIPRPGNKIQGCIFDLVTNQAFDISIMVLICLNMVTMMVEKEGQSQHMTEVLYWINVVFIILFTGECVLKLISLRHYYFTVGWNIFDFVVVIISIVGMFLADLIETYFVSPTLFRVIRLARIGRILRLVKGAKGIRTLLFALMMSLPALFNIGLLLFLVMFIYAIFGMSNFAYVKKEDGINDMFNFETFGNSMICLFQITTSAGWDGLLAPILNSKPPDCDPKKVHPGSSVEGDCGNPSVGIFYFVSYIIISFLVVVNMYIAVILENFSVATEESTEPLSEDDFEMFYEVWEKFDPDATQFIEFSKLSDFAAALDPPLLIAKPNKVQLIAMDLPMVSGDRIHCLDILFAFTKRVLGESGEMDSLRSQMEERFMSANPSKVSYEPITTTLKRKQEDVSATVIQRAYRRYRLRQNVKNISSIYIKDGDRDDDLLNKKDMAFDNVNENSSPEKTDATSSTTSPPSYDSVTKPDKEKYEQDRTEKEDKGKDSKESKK

With `Cc1nc(Nc2ccc(S(=O)(=O)Nc3nccs3)cc2)sc1C(C)(C)C` [Compound 8, 4-(5-Tert-butyl-4-methylthiazol-2-ylamino)-N-(thiazol-2-yl)benzenesulfonamide] the IC50 (hSCN9A; [1]) was less than 2000 nM and the IC50 (hSCN3A; [1]) was less than 2000 nM.
For `O=S(=O)(Nc1nccs1)c1ccc(Nc2nc(C(c3ccccc3)c3ccccc3)cs2)cc1` [Compound 2, 4-(4-Benzhydrylthiazol-2-ylamino)-N-(thiazol-2-yl)benzenesulfonamide], the IC50 (hSCN9A; [1]) was 2000 to 10000 nM and the IC50 (hSCN3A; [1]) was less than 2000 nM.
Work on `O=S(=O)(Nc1nccs1)c1ccc(Nc2cnn(Cc3ccc(C(F)(F)F)cc3)c2)cc1F` [Compound 150, 2-fluoro-N-(thiazol-2-yl)-4-(1-(4-(trifluoromethyl)benzyl)-1H-pyrazol-4-ylamino)benzenesulfonamide] yielded an IC50 (hSCN9A; [2]) of less than 2000 nM and an IC50 (hSCN3A; [3]) of less than 2000 nM.
With `O=S(=O)(Nc1nccs1)c1ccc(Nc2ccn(Cc3ccc(Cl)cc3)n2)c(Cl)c1` [Compound 205, 3-chloro-4-(1-(4-chlorobenzyl)-1H-pyrazol-3-ylamino)-N-(thiazol-2-yl)benzenesulfonamide] the IC50 (hSCN9A; [2]) was less than 2000 nM and the IC50 (hSCN3A; [3]) was less than 2000 nM.
Compound `O=S(=O)(Nc1nccs1)c1ccc(Nc2nc(CNCCOc3ccccc3)cs2)cc1` [Compound 57, 4-(4-((2-phenoxyethylamino)methyl)thiazol-2-ylamino)-N-(thiazol-2-yl)benzenesulfonamide] has an IC50 (hSCN9A; [2]) greater than 1000 nM and an IC50 (hSCN3A; [3]) of 2000 to 10000 nM.
`O=S(=O)(Nc1nccs1)c1ccc(Nc2nc(CCC3CCCC3)cs2)cc1` [Compound 51, 4-(4-(2-cyclopentylethyl)thiazol-2-ylamino)-N-(thiazol-2-yl)benzenesulfonamide] was tested, and the IC50 (hSCN9A; [2]) was 2000 to 10000 nM and the IC50 (hSCN3A; [3]) was less than 2000 nM.
`O=S(=O)(Nc1nccs1)c1ccc(Nc2nc(Cc3ccc(F)cc3F)cs2)cc1` [Compound 79, 4-(4-(2,4-difluorobenzyl)thiazol-2-ylamino)-N-(thiazol-2-yl)benzenesulfonamide] showed an IC50 (hSCN9A; [2]) of less than 2000 nM and an IC50 (hSCN3A; [3]) of less than 2000 nM.
`Cc1cc(Nc2ccc(S(=O)(=O)Nc3nccs3)c(F)c2)n(-c2ccccc2F)n1` [Compound 173, 2-fluoro-4-(1-(2-fluorophenyl)-3-methyl-1H-pyrazol-5-ylamino)-N-(thiazol-2-yl)benzenesulfonamide] showed an IC50 (hSCN9A; [2]) of less than 2000 nM and an IC50 (hSCN3A; [3]) of less than 2000 nM.
For `O=S(=O)(Nc1nccs1)c1ccc(Nc2ncc(S(=O)(=O)c3ccc(Cl)cc3)s2)cc1F` [Compound 105, 4-(5-(4-chlorophenylsulfonyl)thiazol-2-ylamino)-2-fluoro-N-(thiazol-2-yl)benzenesulfonamide], the IC50 (hSCN9A; [2]) was greater than 10000 nM and the IC50 (hSCN3A; [3]) was less than 2000 nM.
Compound `CC(C)(C)n1nc(Nc2ccc(S(=O)(=O)Nc3nccs3)cc2)nc1N` [Compound 19, 4-(5-Amino-1-tert-butyl-1H-1,2,4-triazol-3-ylamino)-N-(thiazol-2-yl)benzenesulfonamide] has an IC50 (hSCN9A; [1]) greater than 10000 nM and an IC50 (hSCN3A; [1]) of less than 2000 nM.
Work on `O=S(=O)(Nc1nccs1)c1ccc(Nc2nnc(Cc3ccc(C(F)(F)F)cc3)s2)cc1` [Compound 27, N-(thiazol-2-yl)-4-(5-(4-(trifluoromethyl)benzyl)-1,3,4-thiadiazol-2-ylamino)benzenesulfonamide] yielded an IC50 (hSCN9A; [1]) greater than 10000 nM and an IC50 (hSCN3A; [1]) of less than 2000 nM.
With `COc1ccc(C(=O)Cn2ncc3cc(S(=O)(=O)Nc4nccs4)ccc32)c(OC)c1` [Compound 276, 1-(2-(2,4-dimethoxyphenyl)-2-oxoethyl)-N-(thiazol-2-yl)-1H-indazole-5-sulfonamide] the IC50 (hSCN9A; [2]) was greater than 1000 nM and the IC50 (hSCN3A; [3]) was less than 2000 nM.
Work on `O=S(=O)(Nc1nccs1)c1ccc(Nc2nc(CCCOc3ccccc3)cs2)cc1` [Compound 50, 4-(4-(3-phenoxypropyl)thiazol-2-ylamino)-N-(thiazol-2-yl)benzenesulfonamide] yielded an IC50 (hSCN9A; [2]) of 2000 to 10000 nM and an IC50 (hSCN3A; [3]) of less than 2000 nM.
For `O=S(=O)(Nc1nccs1)c1ccc(Nc2nc(CNCCC(c3ccccc3)c3ccccc3)cs2)cc1` [Compound 61, 4-(4-((3,3-diphenylpropylamino)methyl)thiazol-2-ylamino)-N-(thiazol-2-yl)benzenesulfonamide], the IC50 (hSCN9A; [2]) was less than 2000 nM and the IC50 (hSCN3A; [3]) was less than 2000 nM.
Work on `Cn1nc(CC2CCCCC2)cc1Nc1ccc(S(=O)(=O)Nc2nccs2)c(F)c1` [Compound 133, 4-(3-(cyclohexylmethyl)-1-methyl-1H-pyrazol-5-ylamino)-2-fluoro-N-(thiazol-2-yl)benzenesulfonamide] yielded an IC50 (hSCN9A; [2]) of less than 2000 nM and an IC50 (hSCN3A; [3]) of less than 2000 nM.
For `COc1ccccc1-n1nc(C)cc1Nc1ccc(S(=O)(=O)Nc2nccs2)c(F)c1` [Compound 188, 2-fluoro-4-(1-(2-methoxyphenyl)-3-methyl-1H-pyrazol-5-ylamino)-N-(thiazol-2-yl)benzenesulfonamide], the IC50 (hSCN9A; [2]) was less than 2000 nM and the IC50 (hSCN3A; [3]) was less than 2000 nM.
For `O=S(=O)(Nc1nccs1)c1ccc(Nc2ccn(Cc3ccc(Cl)cc3)n2)cc1Cl` [Compound 263, 2-chloro-4-(1-(4-chlorobenzyl)-1H-pyrazol-3-ylamino)-N-(thiazol-2-yl)benzenesulfonamide], the IC50 (hSCN9A; [2]) was less than 2000 nM and the IC50 (hSCN3A; [3]) was less than 2000 nM.
`COc1ccc(CCNCc2csc(Nc3ccc(S(=O)(=O)Nc4nccs4)cc3)n2)cc1OC` [Compound 66, 4-(4-((3,4-dimethoxyphenethylamino)methyl)thiazol-2-ylamino)-N-(thiazol-2-yl)benzenesulfonamide] showed an IC50 (hSCN9A; [2]) greater than 3000 nM and an IC50 (hSCN3A; [3]) greater than 1000 nM.
For `NC(=O)Cn1nc(Cc2ccc(Cl)cc2)cc1Nc1ccc(S(=O)(=O)Nc2nccs2)cc1` [Compound 155, 2-(3-(4-chlorobenzyl)-5-(4-(N-thiazol-2-ylsulfamoyl)phenylamino)-1H-pyrazol-1-yl)acetamide], the IC50 (hSCN9A; [2]) was less than 2000 nM and the IC50 (hSCN3A; [3]) was less than 2000 nM.
`Nc1nc(Nc2ccc(S(=O)(=O)Nc3nccs3)cc2)nn1Cc1ccc(Cl)cc1` [Compound 24, 4-(5-amino-1-(4-chlorobenzyl)-1H-1,2,4-triazol-3-ylamino)-N-(thiazol-2-yl)benzenesulfonamide] showed an IC50 (hSCN9A; [1]) greater than 10000 nM and an IC50 (hSCN3A; [1]) of 2000 to 10000 nM.
`O=S(=O)(Nc1ncns1)c1ccc(Nc2ccn(Cc3ccc(Cl)cc3)n2)cc1F` [Compound 244, 4-(1-(4-chlorobenzyl)-1H-pyrazol-3-ylamino)-2-fluoro-N-(1,2,4-thiadiazol-5-yl)benzenesulfonamide] showed an IC50 (hSCN9A; [2]) of less than 2000 nM and an IC50 (hSCN3A; [3]) of less than 2000 nM.
`Cn1nc(C(C)(C)C)cc1Nc1ccc(S(=O)(=O)Nc2nccs2)cc1` [Compound 17, 4-(3-Tert-butyl-1-methyl-1H-pyrazol-5-ylamino)-N-(thiazol-2-yl)benzenesulfonamide] gave an IC50 (hSCN9A; [1]) of 2000 to 10000 nM and an IC50 (hSCN3A; [1]) of less than 2000 nM.
For `O=S(=O)(Nc1nccs1)c1ccc(Nc2nc(C3(c4ccc(Cl)cc4)CCCC3)cs2)cc1` [Compound 64, 4-(4-(1-(4-chlorophenyl)cyclopentyl)thiazol-2-ylamino)-N-(thiazol-2-yl)benzenesulfonamide], the IC50 (hSCN9A; [2]) was greater than 1000 nM and the IC50 (hSCN3A; [3]) was less than 2000 nM.
For `Cn1nc(-c2ccc(Cl)cc2)cc1Nc1ccc(S(=O)(=O)Nc2nccs2)c(F)c1` [Compound 153, 4-(3-(4-chlorophenyl)-1-methyl-1H-pyrazol-5-ylamino)-2-fluoro-N-(thiazol-2-yl)benzenesulfonamide], the IC50 (hSCN9A; [2]) was less than 2000 nM and the IC50 (hSCN3A; [3]) was less than 2000 nM.
`Cn1nc(CC2CCCCC2)cc1Nc1ccc(S(=O)(=O)Nc2nccs2)c(O)c1` [Compound 134, 4-(3-(cyclohexylmethyl)-1-methyl-1H-pyrazol-5-ylamino)-2-hydroxy-N-(thiazol-2-yl)benzenesulfonamide] gave an IC50 (hSCN9A; [2]) of less than 2000 nM and an IC50 (hSCN3A; [3]) of less than 2000 nM.
